In patent publication US12060387B2, “Polypeptide-based shuttle agents for improving the transduction efficiency of polypeptide cargos to the cytosol of target eukaryotic cells, uses thereof, methods and kits relating to same” (priority 2015, dated 2024):
Where two headings read alike, the source gives them in different places. Where no end group is shown, it is not given here.

Experiments:
THP-1 cells [1] = assay: Total RNA levels (ng/μL) as a marker for cell viability; format: cell-based, human
Experimental: (§1) Control and treated cells are transferred to separate sterile 1.5-mL tubes and centrifuged for 5 minutes at 300 g. The cell pellets are resuspended in appropriate buffer to lyse the cells. RNAase-free 70% ethanol is then added followed by mixing by pipetting. The lysates are transferred to an RNeasy™ Mini spin column and centrifuged 30 seconds at 13000 RPM. After several washes with appropriate buffers and centrifugation steps, the eluates are collected in sterile 1.5-mL tubes on ice, and the RNA quantity in each tube is then quantified with a spectrophotometer. For DNase treatment, 2 μg of RNA is diluted in 15 μL of RNase-free water. 1.75 μL of 10× DNase buffer and 0.75 μL of DNase is then added, followed by incubation at 37° C. for 15 minutes. For reverse transcriptase treatment, 0.88 μL of EDTA ([…]) is added, followed by incubation at 75° C. for 5 minutes. In a PCR tube, 0.5 μg of DNase-treated RNA is mixed with 4 μL of iScript™ Reverse transcription Supermix (5×) and […] of nuclease-free water. The mix is incubated in a PCR machine with the following program: 5 min at 25° C., 30 min at 42° C. and 5 min at 85° C. Newly synthesized cDNA is transferred in sterile 1.5-mL tubes and diluted in 2 μL of nuclease-free water. 18 μL per well of a qPCR machine (CFX-96™) mix is then added in a PCR plate for analysis.
Briefly, THP-1 cells were plated at 30 000 cells/well one day before transduction. HOXB4-WT recombinant protein (0.3, 0.9, or 1.5 μM; Example 14.1) was co-incubated with different concentrations of His-CM18-PTD4 ([…], 0.8 or 1 μM) and then exposed to THP-1 cells for 2.5 hours in the presence of serum. The cells were subjected to real time-PCR analysis as described in Example 14.2 to measure the mRNA levels of a target gene as a marker for HOXB4 activity, which was then normalized to the target gene mRNA levels detected in the negative control cells (no treatment), to obtain a “Fold over control” value. Total RNA levels (ng/μL) were also measured as a marker for cell viability.

HeLa cells [2] = assay: GFP-NLS transduction efficiency, flow cytometry (Pos cells %, relative fluorescence intensity FL1-A); format: cell-based, Human; conditions: Protocol B, 1 minute; for Mean % cells with GFP signal (±St. Dev.; n = 3), FIG. 29I: shuttle 20 μM, GFP-NLS 5 μM
[3] = Cell toxicity / % cell viability by flow cytometry (cells in total events v. untreated); format: cell-based, Human; conditions: human, HeLa cells, HeLa; for viability at 1 min, 20 µM / viability at 10 s, 50 µM / viability at 1 min, 10 µM / viability at 2 min, 10 µM / viability at 5 min, 10 µM: Protocol B; for viability at 1 min, 20 µM: 1 minute; for viability at 10 s, 50 µM: FIG. 29A, shuttle 50 μM, 10 seconds; for viability at 1 min, 10 µM / viability at 2 min, 10 µM / viability at 5 min, 10 µM: shuttle 10 μM; for viability at 1 min, 10 µM: incubation 1 min; for viability at 2 min, 10 µM: incubation 2 min; for viability at 5 min, 10 µM: incubation 5 min
Description: (§2) The fluorescence of GFP was quantified using flow cytometry (Accuri C6, Becton, Dickinson and Company (BD)). Untreated cells were used to establish a baseline in order to quantify the increased fluorescence due to the internalization of the fluorescent protein in treated cells. The percentage of cells with a fluorescence signal above the maximum fluorescence of untreated cells, “mean %” or “Pos cells (%)”, is used to identify positive fluorescent cells. “Relative fluorescence intensity (FL1-A)” corresponds to the mean of all fluorescence intensities from each cell with a fluorescent signal after fluorescent protein delivery with the shuttle agent. Also, the events scanned by flow cytometry corresponding to cells (size and granularity) were analyzed. The cellular toxicity (% cell viability) was monitored comparing the percentage of cells in the total events scanned of treated cells comparatively to untreated cells.

HeLa cells [4] = assay: as above; format: cell-based, Human; conditions: for effect of the variation of the shuttle on cell viability (in words): GFP-NLS 5 μM with 20 μM shuttle variant
Description: as §2

THP-1 cells [5] = assay: HOXB4-WT transduction, real-time PCR of target gene mRNA (Fold over control); format: cell-based, human
Experimental: as §1
Briefly, THP-1 cells were plated at 30 000 cells/well one day before transduction. […] The cells were subjected to real time-PCR analysis as described in Example 14.2 to measure the mRNA levels of a target gene as a marker for HOXB4 activity, which was then normalized to the target gene mRNA levels detected in the negative control cells (no treatment), to obtain a “Fold over control” value. Total RNA levels (ng/μL) were also measured as a marker for cell viability.
Briefly, THP-1 cells were plated at 30 000 cells/well one day before the first time course experiment. […] The cells were subjected to real time-PCR analysis as described in Example 14.2 to measure mRNA levels of a target gene as a marker for HOXB4 activity, which was then normalized to the target gene mRNA levels detected in the negative control cells (no treatment), to obtain a “Fold over control” value. Total RNA levels (ng/μL) were also measured as a marker for cell viability.
Briefly, THP-1 cells were plated at 30 000 cells/well one day before the first time course experiment. […] The cells were subjected to real time-PCR analysis as described in Example 14.2 to measure mRNA levels of a target gene as a marker for HOXB4 activity, which was then normalized to target gene mRNA levels detected in the negative control cells (no treatment), to obtain a “Fold over control” value. Total RNA levels (ng/μL) were also measured as a marker for cell viability. […]

[6] = Cell toxicity / % cell viability by flow cytometry (cells in total events v. untreated); format: cell-based, human; conditions: human, THP-1 cells, THP-1, Protocol C, shuttle 1 μM, GFP-NLS 5 μM, read-out: Cell viability (%) (±St. Dev.; n = 3)
Description: as §2

[7] = Cell viability (%) (±St. Dev.; n = 3), FIG. 29I, shuttle 20 μM, GFP-NLS 5 μM, read-out: Cell viability (%) (±St. Dev.; n = 3), FIG. 29I
[8] = Cell viability (%) (±St. Dev.; n = 3), GFP-NLS 5 μM, read-out: Cell viability (%) (±St. Dev.; n = 3)
[9] = HeLa, Protocol B, shuttle 50 μM, GFP-NLS 5 μM, 10 seconds
[10] = GFP-NLS 5 μM, read-out: Cell viability (%) (±St. Dev.; n = 3), FIG. 29G
[11] = GFP-NLS 5 μM, read-out: Cell viability (%) (±St. Dev.; n = 3)
[12] = GFP-NLS 5 μM, read-out: Cell viability (%) (±St. Dev.; n = 3), FIG. 29B

In the case of “HHHHHHKWKLFKKIGAVLKVLTTGYARAAARQARA [His-CM18-PTD4 alone]”, the “Total RNA in ng/μL (mean ± St. Dev)” value (THP-1 cells [1]; Table 14.1, shuttle 1 μM, HOXB4-WT 0 μM, 2.5 hours with serum) is reported as 252 ± 10.7 ng/µL, the “Total RNA in ng/μL (mean ± St. Dev)” value (THP-1 cells [1]; Table 14.2, shuttle 0.8 μM, HOXB4-WT 0 μM, exposure time 2.5 h, serum) is reported as 184 ± 6.0 ng/µL and the “Total RNA in ng/μL (mean ± St. Dev)” value (THP-1 cells [1]; Table 14.3, shuttle 0 μM, HOXB4-WT 0.3 μM, exposure time 2.5 h, serum) is reported as 260 ± 7.1 ng/µL. The “Total RNA in ng/μL (mean ± St. Dev)” value (THP-1 cells [1]; Table 14.4, shuttle 0 μM, HOXB4-WT 1.5 μM, exposure time 2.5 h, serum) was 303.9 ± 7.6 ng/µL.

In the case of “HHHHHHKWKLFKKIGAVLKVLTTGYARAAARQARACCCCCC (cysteines drawn unpaired) [His-CM18-PTD4-6Cys]”, the “Mean % cells with GFP signal (±St. Dev.; n = 3), FIG. 29I” value (“Mean % cells with GFP signal” below) (HeLa cells [2]) is reported as 41.3 ± 4.28% and the viability at 1 min, 20 µM [3, 7] is reported as 62 ± 5.76%.

“HHHHHHKWKLFKKIGAVLKVLTTGYGRKKRRQRRR [His-CM18-TAT]” gave a viability at 1 h, 1 µM ([3]; Cell viability (%) (±St. Dev.; n = 3), FIG. 21B, GFP-NLS 5 μM, shuttle 1 μM, 1 hour, read-out: Cell viability (%) (±St. Dev.; n = 3), FIG. 21B) of 95 ± 3.55%, a viability at 1 h, 3 µM ([3]; Cell viability (%) (±St. Dev.; n = 3), FIG. 21B, GFP-NLS 5 μM, shuttle 3 μM, 1 hour, read-out: Cell viability (%) (±St. Dev.; n = 3), FIG. 21B) of 91 ± 5.18% and a viability at 1 h, 5 µM ([3]; Cell viability (%) (±St. Dev.; n = 3), FIG. 21B, GFP-NLS 5 μM, shuttle 5 μM, 1 hour, read-out: Cell viability (%) (±St. Dev.; n = 3), FIG. 21B) of 86 ± 4.59%. The viability at 10 s, 50 µM [3, 8] was 35.2 ± 5.7% and the “Cell viability (%) (±St. Dev.; n = 3), FIG. 29E” value (HeLa cells [4]; [9]) was 35.2 ± 5.7%.

In the case of HOXB4-WT alone, the “Fold over control (mean ± St. Dev)” value (THP-1 cells [5]; Table 14.1, shuttle 0 μM, HOXB4-WT 1.5 μM, 2.5 hours with serum) is reported as 4.3 ± 0.1, the “Fold over control (mean ± St. Dev)” value (THP-1 cells [5]; Table 14.2, shuttle 0 μM, HOXB4-WT 1.5 μM, exposure time 2.5 h, serum) is reported as 3.4 ± 0.3 and the “Fold over control (mean ± St. Dev)” value (THP-1 cells [5]; Table 14.3, shuttle 0.8 μM, HOXB4-WT 0 μM, exposure time 2.5 h, serum) is reported as 1 ± 0.14. The “Fold over control (mean ± St. Dev)” value (THP-1 cells [5]; Table 14.4, shuttle 0.8 μM, HOXB4-WT 0 μM, exposure time 2.5 h, serum) was 1 ± 0.11.

For “KWKLFKKIGAVLKVLTTGGGSGGGSGGGSGYARAAARQARA [CM18-L3-PTD4]”, the “effect of the variation of the shuttle on transduction efficiency (in words)” value (HeLa cells [2]; GFP-NLS 5 μM with 20 μM shuttle variant) was “did not result in a dramatic loss of transduction efficiency”, the “Mean % cells with GFP signal” value (HeLa cells [2]) was 39.0 ± 2.7% and the “effect of the variation of the shuttle on cell viability (in words)” value (from here on “effect … on cell viability (in words)”) (HeLa cells [4]; HeLa, 1 minute, Protocol B) was “increased cell viability”.

With “KWKLFKKIGAVLKVLTTGGGSGGGSYARAAARQARA [CM18-L2-PTD4]” the viability at 1 min, 20 µM [3, 7] was 64 ± 1.3% and the “effect … on cell viability (in words)” value (HeLa cells [4]; HeLa, 1 minute, Protocol B) was “increased cell viability”.

In the case of “KWKLFKKIGAVLKVLTTGGGSYARAAARQARA [CM18-L1-PTD4]”, the viability at 1 min, 20 µM [3, 7] is reported as 50.1 ± 3.8% and the “effect … on cell viability (in words)” value (HeLa cells [4]; HeLa, 1 minute, Protocol B) is reported as “increased cell viability”.

For “KWKLFKKIGAVLKVLTTGYARAAARQARA [CM18-PTD4]”, the viability at 1 min, 20 µM ([3]; cell viability, GFP-NLS 5 μM with 20 μM shuttle, Table 10.3e, read-out: cell viability) was 33.9% and the “Cell viability (%) (±St. Dev.; n = 3), FIG. 29I” value (HeLa cells [4]; HeLa, Protocol B, shuttle 20 μM, GFP-NLS 5 μM, 1 minute) was 33.9 ± 3.7%.

For “MHHHHHHKWKLFKKIGAVLKVLTTGYARAAARQARAC [Met-His-CM18-PTD4-Cys]”, the “Mean % cells with GFP signal” value (HeLa cells [2]) was 45.6 ± 3.88% and the viability at 1 min, 20 µM [3, 7] was 54.9 ± 3.45%.

“YARAAARQARAWEAKLAKALAKALAKHLAKALAKALKACEA [PTD4-KALA]” showed a viability at 1 min, 10 µM [3, 10] of 96.2 ± 3%, a viability at 2 min, 10 µM [3, 10] of 75.3 ± 3.8% and a viability at 5 min, 10 µM [3, 10] of 82.4 ± 4.7%. For the same substance, the viability at 10 s, 50 µM [3, 11] was 91.4 ± 3.67% and the “Cell viability (%) (±St. Dev.; n = 3), FIG. 29F” value (from here on “Cell viability (%) … FIG. 29F”) (HeLa cells [4]) was 91.4 ± 3.67%.

In the case of “YGRKKRRQRRRCKWKLFKKIGAVLKVLTTG [TAT-CM18]”, the viability at 10 s, 50 µM [3, 8] is reported as 23.5 ± 1.1% and the “Cell viability (%) … FIG. 29F” value (HeLa cells [4]; [9]) is reported as 23.5 ± 1.1%.

With “YGRKKRRQRRRCWEAKLAKALAKALAKHLAKALAKALKACEA (cysteines drawn unpaired) [TAT-KALA]” the viability at 15 s, 1 µM ([6]; incubation time 15 sec) was 84.6 ± 2.7%, the viability at 0.5 min, 1 µM ([6]; incubation time 30 sec) was 70.3 ± 3.2% and the viability at 1 min, 1 µM ([6]; incubation time 60 sec) was 82.7 ± 1.4%. For the same substance, the viability at 2 min, 1 µM ([6]; incubation time 120 sec) was 46.3 ± 4.9%, the viability at 1 min, 10 µM [3, 12] was 93.5 ± 2.7% and the viability at 2 min, 10 µM [3, 12] was 92.1 ± 3.1%. For the same substance, the viability at 5 min, 10 µM [3, 12] was 86 ± 4.4%, the viability at 10 s, 50 µM [3, 11] was 95.6 ± 4.3% and the “Cell viability (%) … FIG. 29F” value (HeLa cells [4]; [9]) was 95.6 ± 4.3%.
